Test results reported in ChEMBL document CHEMBL1275369, “Structural insights into the hot spot amino acid residues of mushroom tyrosinase for the bindings of thujaplicins” (Bioorg Med Chem, 2010).

Experiments:
Tyrosinase [1] = biological target: T1, Tyrosinase (Agaricus bisporus, UniProt O42713); experiment: Inhibition of mushroom tyrosinase after 15 mins
T1 sequence (O42713 whole entry): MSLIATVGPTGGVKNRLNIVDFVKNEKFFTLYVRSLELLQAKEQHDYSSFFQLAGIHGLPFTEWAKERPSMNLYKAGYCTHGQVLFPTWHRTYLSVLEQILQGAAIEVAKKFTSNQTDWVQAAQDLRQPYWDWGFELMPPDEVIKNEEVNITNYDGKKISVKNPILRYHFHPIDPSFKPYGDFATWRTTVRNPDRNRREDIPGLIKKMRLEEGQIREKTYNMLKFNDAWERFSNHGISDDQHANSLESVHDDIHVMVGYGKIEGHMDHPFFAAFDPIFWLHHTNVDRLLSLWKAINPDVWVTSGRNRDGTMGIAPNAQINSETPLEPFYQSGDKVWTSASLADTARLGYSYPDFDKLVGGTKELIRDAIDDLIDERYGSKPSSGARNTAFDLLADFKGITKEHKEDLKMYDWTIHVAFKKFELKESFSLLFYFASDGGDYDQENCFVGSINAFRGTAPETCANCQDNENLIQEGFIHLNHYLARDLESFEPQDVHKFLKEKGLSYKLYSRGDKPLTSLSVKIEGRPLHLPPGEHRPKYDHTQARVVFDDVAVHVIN

Tyrosinase [2] = biological target: T1, Tyrosinase; experiment: Competitive inhibition of mushroom tyrosinase after 15 mins by Lineweaver-Burke plot analysis
[3] = substrate: CC(C)c1cccc(=O)c(O)c1; details: Agaricus bisporus; 0.20 uM
Description: Inhibition of mushroom tyrosinase at 0.20 uM after 15 mins by Michaelis-Menten constant analysis

[4] = substrate: CC(C)c1ccc(O)c(=O)cc1; details: Agaricus bisporus; 0.06 uM
Description: Inhibition of mushroom tyrosinase at 0.06 uM after 15 mins by Michaelis-Menten constant analysis

[5] = substrate: CC(C)c1cccc(=O)c(O)c1; details: Agaricus bisporus; 0.05 uM
Description: Inhibition of mushroom tyrosinase at 0.05 uM after 15 mins by Michaelis-Menten constant analysis

[6] = substrate: CC(C)c1ccc(O)c(=O)cc1; details: Agaricus bisporus; 0.02 uM
Description: Inhibition of mushroom tyrosinase at 0.02 uM after 15 mins by Michaelis-Menten constant analysis

[7] = substrate: CC(C)c1ccccc(=O)c1O; details: Agaricus bisporus; 6 uM
Description: Inhibition of mushroom tyrosinase at 6 uM after 15 mins by Michaelis-Menten constant analysis

[8] = substrate: CC(C)c1ccccc(=O)c1O; details: Agaricus bisporus; 3 uM
Description: Inhibition of mushroom tyrosinase at 3 uM after 15 mins by Michaelis-Menten constant analysis

With CC(C)c1ccccc(=O)c1O [ALPHA-THUJAPLICIN] the IC50 (Tyrosinase [1]) was 9530 nM and the Ki (Tyrosinase [2]) was 3300 nM.

CC(C)c1ccc(O)c(=O)cc1 [GAMMA-THUJAPLICIN] showed an IC50 (Tyrosinase [1]) of 70 nM and a Ki (Tyrosinase [2]) of 20 nM.

With CC(C)c1cccc(=O)c(O)c1 [HINOKITIOL] the IC50 (Tyrosinase [1]) was 90 nM and the Ki (Tyrosinase [2]) was 60 nM.

B1: Tyrosinase (Agaricus bisporus), O42713 (protein)
chain: MSLIATVGPTGGVKNRLNIVDFVKNEKFFTLYVRSLELLQAKEQHDYSSFFQLAGIHGLPFTEWAKERPSMNLYKAGYCTHGQVLFPTWHRTYLSVLEQILQGAAIEVAKKFTSNQTDWVQAAQDLRQPYWDWGFELMPPDEVIKNEEVNITNYDGKKISVKNPILRYHFHPIDPSFKPYGDFATWRTTVRNPDRNRREDIPGLIKKMRLEEGQIREKTYNMLKFNDAWERFSNHGISDDQHANSLESVHDDIHVMVGYGKIEGHMDHPFFAAFDPIFWLHHTNVDRLLSLWKAINPDVWVTSGRNRDGTMGIAPNAQINSETPLEPFYQSGDKVWTSASLADTARLGYSYPDFDKLVGGTKELIRDAIDDLIDERYGSKPSSGARNTAFDLLADFKGITKEHKEDLKMYDWTIHVAFKKFELKESFSLLFYFASDGGDYDQENCFVGSINAFRGTAPETCANCQDNENLIQEGFIHLNHYLARDLESFEPQDVHKFLKEKGLSYKLYSRGDKPLTSLSVKIEGRPLHLPPGEHRPKYDHTQARVVFDDVAVHVIN
B1 gave a Km [3] of 1160 µM, a Km [4] of 950 µM and a Km [5] of 530 µM. The Km [6] was 530 µM, the Km [7] was 380 µM and the Km [8] was 380 µM.
